From patent US12331096B2, “Binding domain mapping and compounds, compositions, complexes, methods, and kits related thereto” (GEORGE MASON RESEARCH FOUNDATION, INC., priority 2019, dated 2025) come the findings set out here.

Data set [1] is described as follows: Solubility of azo coupling products synthesized in PBS. The format is physicochemical. The following applies: synthesized at room temperature in PBS, pH 7.4. The protocol:
Dyes stocks were prepared to 1 mg/mL final concentrations. Synthesis was conducted as follows: Fast Dyes were mixed in 1× Dubelcco's PBS with an excess of coupling agent (3-fold molar concentration of coupling agent to fast dye) and vortexed. Reactions were conducted at room temperature and proceeded in the first 5 minutes of mixing with evident color change. Dye stocks were allowed to incubate at room temperature for one week prior to use. Dyes were used without further purification and were diluted prior to use in protein painting. Dye reagents were vortexed before each use, and stable for >6 months at room temperature. Reactions were monitored by reverse phase C18 TLC (mobile phase of 60% methanol, 40% water) to determine number of product bands. […] The two major product bands were separated via reverse-phase flash column chromatography conducted essentially as described previously using a 20 mm column, stationary phase of COSMOSIL C18-OPN reverse phase resin (Nacalai USA, Catalog number 37842-66), and mobile phase of 60% methanol or 30% acetonitrile. Fractions containing individual bands were identified via reverse-phase TLC and were pooled and dried. Pure samples by TLC were analyzed by NMR to confirm structure of each major product.
Two different fast dyes were used to synthesize new dye candidates. Fast Blue B was chosen to synthesize new diazo dyes, as it is structurally similar to the core of TB, while Fast Red TR was chosen to synthesize new halogenated small dyes. Four diverse coupling agents, 4-Amino-1-naphthalenesulfonic Acid or naphthionic acid, 4-Amino-5-hydroxy-2,7-naphthalenedisulfonic acid or H-acid, 7-Amino-1,3-naphthalenedisulfonic acid or Amino G Acid, and 2-napthol were chosen to evaluate the role of sulfonates on specific binding. […] The remaining 5 candidate dyes, Fast Blue B+Naphthionic Acid (FBBNA), Fast Blue B+H-acid (FBBHA), Fast Red TR+Naphthionic Acid (FRNA), Fast Red TR+H-acid (FRHA), and Fast Red TR+Amino G Acid (FRAGA), were all evaluated for their specific binding with respect to thyroglobulin (see Table 3).

The target of a further data set is T1, Thyroglobulin (Bos taurus, UniProt P01267).
T1 construct: purchased Sigma Aldrich 9010-34-8
T1 sequence (P01267 20-2769): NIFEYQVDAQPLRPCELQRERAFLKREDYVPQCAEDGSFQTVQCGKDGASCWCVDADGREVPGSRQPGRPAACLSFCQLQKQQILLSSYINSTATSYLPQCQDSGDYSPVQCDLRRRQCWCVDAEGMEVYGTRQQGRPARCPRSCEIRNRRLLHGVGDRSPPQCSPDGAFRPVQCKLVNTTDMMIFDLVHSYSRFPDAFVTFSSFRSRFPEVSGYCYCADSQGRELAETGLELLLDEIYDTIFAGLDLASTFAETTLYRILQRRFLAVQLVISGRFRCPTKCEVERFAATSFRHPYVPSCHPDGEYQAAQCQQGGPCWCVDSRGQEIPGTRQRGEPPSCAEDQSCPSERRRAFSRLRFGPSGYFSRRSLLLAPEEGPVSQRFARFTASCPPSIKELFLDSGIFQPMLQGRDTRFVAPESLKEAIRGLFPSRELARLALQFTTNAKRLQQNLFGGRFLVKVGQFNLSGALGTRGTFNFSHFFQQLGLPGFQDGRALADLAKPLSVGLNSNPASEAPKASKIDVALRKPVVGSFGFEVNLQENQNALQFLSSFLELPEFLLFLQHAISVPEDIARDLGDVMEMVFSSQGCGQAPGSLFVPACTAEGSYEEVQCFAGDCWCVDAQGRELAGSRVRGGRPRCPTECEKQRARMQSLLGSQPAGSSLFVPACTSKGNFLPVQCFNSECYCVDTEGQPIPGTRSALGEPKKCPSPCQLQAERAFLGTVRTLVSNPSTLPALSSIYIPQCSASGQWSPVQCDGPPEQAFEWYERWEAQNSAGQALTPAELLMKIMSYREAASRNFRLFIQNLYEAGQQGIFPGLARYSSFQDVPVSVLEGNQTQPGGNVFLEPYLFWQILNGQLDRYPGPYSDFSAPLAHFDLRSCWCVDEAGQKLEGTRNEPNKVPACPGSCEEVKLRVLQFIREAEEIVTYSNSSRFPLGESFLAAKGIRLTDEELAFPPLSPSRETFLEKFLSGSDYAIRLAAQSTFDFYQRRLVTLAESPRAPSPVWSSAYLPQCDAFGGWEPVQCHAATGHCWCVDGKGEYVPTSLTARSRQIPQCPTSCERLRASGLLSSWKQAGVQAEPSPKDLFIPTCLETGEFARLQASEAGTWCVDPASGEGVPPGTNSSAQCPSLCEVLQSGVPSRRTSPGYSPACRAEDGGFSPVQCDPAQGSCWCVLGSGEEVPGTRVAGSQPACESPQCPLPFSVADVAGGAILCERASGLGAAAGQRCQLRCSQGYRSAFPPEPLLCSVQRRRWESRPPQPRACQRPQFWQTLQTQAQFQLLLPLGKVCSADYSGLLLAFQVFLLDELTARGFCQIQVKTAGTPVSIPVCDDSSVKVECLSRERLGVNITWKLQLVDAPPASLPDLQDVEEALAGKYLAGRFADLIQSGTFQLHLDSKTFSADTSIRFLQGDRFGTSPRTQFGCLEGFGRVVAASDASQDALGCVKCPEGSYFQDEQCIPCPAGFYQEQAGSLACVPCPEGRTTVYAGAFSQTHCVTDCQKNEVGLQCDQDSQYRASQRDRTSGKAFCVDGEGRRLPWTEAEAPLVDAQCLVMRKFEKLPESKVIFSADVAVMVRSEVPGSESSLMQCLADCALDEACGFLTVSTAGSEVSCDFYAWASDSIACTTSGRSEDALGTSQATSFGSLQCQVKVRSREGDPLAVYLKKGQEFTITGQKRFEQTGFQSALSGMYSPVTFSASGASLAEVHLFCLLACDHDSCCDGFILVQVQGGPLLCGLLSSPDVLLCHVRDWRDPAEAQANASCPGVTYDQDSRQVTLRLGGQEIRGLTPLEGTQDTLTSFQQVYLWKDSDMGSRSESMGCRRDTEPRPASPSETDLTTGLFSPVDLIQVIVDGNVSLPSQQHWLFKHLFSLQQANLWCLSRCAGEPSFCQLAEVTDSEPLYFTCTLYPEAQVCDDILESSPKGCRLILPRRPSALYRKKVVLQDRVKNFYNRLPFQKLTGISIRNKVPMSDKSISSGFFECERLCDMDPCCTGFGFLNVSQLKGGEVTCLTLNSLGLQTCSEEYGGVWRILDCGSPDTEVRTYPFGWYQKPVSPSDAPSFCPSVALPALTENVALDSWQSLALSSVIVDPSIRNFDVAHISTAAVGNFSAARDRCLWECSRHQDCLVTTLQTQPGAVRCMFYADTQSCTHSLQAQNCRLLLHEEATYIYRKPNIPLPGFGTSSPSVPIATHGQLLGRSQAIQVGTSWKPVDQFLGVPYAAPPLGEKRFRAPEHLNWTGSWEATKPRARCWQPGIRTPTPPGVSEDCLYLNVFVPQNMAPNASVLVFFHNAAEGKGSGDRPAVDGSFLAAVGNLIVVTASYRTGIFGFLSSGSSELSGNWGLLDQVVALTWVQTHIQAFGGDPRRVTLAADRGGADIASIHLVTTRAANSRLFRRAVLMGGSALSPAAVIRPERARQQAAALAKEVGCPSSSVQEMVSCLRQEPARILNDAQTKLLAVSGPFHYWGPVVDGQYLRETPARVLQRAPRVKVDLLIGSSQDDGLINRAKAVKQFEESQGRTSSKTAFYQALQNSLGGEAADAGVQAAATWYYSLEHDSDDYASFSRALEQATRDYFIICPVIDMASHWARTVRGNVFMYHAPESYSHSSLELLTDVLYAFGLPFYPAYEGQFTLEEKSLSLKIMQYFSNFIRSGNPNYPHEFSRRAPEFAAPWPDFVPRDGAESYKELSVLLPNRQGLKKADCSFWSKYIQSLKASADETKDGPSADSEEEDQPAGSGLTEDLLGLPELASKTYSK
The data set can be described thus: Specific binding of dye to thyroglobulin (gel filtration, UV-Vis). The conditions noted are these: for Specific binding to thyroglobulin at equilibrium: Vmax of Michaelis-Menten fit, no CuSO4. Here is the method: (§1) To determine specific binding of each candidate dye, thyroglobulin was primarily used as a model protein, because its large surface area facilitated more molecules of dye binding per protein, and thus higher signal to noise ratios versus smaller proteins. Candidate dyes were examined on a UV-2501PC UV-Vis spectrometer to determine Amax values. Standard curves were prepared for quantification of molecules of dye; dyes were eliminated from consideration if sensitivity of detection was not greater than 10 μM in solution. Thyroglobulin (1-5 μM) was mixed with 100-fold molar excess of candidate dye dissolved in PBS and allowed to associate between 15 seconds to 2 hours at room temperature. After association, 50 μL of the dye-protein mixtures were passed through a mini Quick Spin Oligo Column (Sephadex G-25 resin, Roche) and centrifugated at 1000× g for 1 min to separate unbound dye from the protein-dye complex. The collected flow-through was examined with UV-Vis spectroscopy, and quantity of dye in the flow-through was calculated using the previously developed standard curve for the dye. Specific Binding was defined as [Paint Molecules Bound]/[Protein]. A plot of specific binding versus time was fit with the Michaelis-Menton equation in GraphPad Prism 6 as a model to determine association kinetics and maximum dye binding, where Vmax represents the maximum amount of dye molecules that bind to the protein at equilibrium. All curves are fit to data from two independent experiments. Specific binding of dye candidates to lysozyme was conducted similarly, with the change that lysozyme (2-10 μM) was mixed with 50-fold molar excess of dye candidate dissolved in PBS and allowed to associate for the indicated time points.

Data set [2] can be described thus: Peptide solubility to 1 mM stock. The following applies: solvent additive for 1 mM stock.
Another data set addresses T2, Lysozyme (Gallus gallus, UniProt P00698).
T2 construct: purchased Sigma Aldrich 12650-88-3
Description: Specific binding of dye to lysozyme. The protocol:
as §1

The next data set addresses bovine serum albumin (Bos taurus, UniProt P02769). The data set can be described thus: Circular dichroism spectroscopy of BSA with dye, urea denaturation. Here is the method:
Circular dichroism spectroscopy was conducted using bovine serum albumin on a Jasco J-1500 CD spectrometer from 190-350 nm using a 1 mm cuvette. BSA stock solutions were prepared to 2 mg/mL from lyophilized protein in sterile-filtered 10 mM phosphate buffer, pH 7.0 and centrifuged at 16,000×g to remove particulates. Concentration was determined via A280 using an extinction coefficient of 43,824 M^−1 cm^−1 for BSA. Stocks were stored at −80° C. and diluted to the appropriate concentration in sterile-filtered MilliQ water for each experiment. Final concentration of BSA in each sample was 2 μM (0.12 mg/mL). Samples were incubated for 10 minutes with dye at a molar ratio equal to the specific binding of the molecule to the protein (i.e. 18 μM of FBBNA for 1 μM of BSA). Controls were incubated with equivolume amounts of MilliQ water in place of dye. […] Helical content of BSA spectra was determined using the online server DICHROWEB (Whitmore, L., and Wallace, B. A., “Protein secondary structure analyses from circular dichroism spectroscopy: methods and reference databases.” Biopolymers. 89, 392-400, 2008; Whitmore, L., and Wallace, B. A., “DICHROWEB, an online server for protein secondary structure analyses from circular dichroism spectroscopic data.” Nucleic Acids Res. 32, W668-673, 2004) to confirm native structure.

Where “and” joins values, the source holds several entries; their conditions need not be identical. Equal values may be shown once. Entries after “also recorded” stand apart in the source; their conditions may differ. Read-outs that look alike come from different tables or passages of the source. Where a SMILES comes first, the peptide text is derived from it. Bridges are numbered along the chain shown (N, C = ends).

T2 sequence (P00698 19-147): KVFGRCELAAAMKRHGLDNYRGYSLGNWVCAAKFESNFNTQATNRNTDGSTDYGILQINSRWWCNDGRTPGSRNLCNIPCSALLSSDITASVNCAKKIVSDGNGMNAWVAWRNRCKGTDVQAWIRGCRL
Sequence of bovine serum albumin (P02769 25-607): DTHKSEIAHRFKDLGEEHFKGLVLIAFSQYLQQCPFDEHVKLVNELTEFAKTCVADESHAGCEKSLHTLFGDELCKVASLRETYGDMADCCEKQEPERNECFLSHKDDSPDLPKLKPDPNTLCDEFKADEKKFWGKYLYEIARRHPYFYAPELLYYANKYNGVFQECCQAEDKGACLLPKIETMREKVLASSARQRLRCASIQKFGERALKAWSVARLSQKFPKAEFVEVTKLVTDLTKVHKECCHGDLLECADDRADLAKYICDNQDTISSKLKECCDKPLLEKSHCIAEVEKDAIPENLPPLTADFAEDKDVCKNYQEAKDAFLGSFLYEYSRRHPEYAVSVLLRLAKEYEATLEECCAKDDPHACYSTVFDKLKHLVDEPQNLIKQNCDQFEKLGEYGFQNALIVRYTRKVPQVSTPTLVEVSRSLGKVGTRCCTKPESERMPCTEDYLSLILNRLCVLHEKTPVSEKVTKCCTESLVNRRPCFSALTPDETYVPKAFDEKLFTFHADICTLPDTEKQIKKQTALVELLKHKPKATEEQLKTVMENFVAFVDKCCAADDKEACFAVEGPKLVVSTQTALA

For `COc1cc(-c2ccc(N=Nc3c(O)ccc4ccccc34)c(OC)c2)ccc1N=Nc1c(O)ccc2ccccc12` [FBB2N], in data set [1], the “Solubility of dye product” value was “FBB2N: Dark Blue Pigment Insoluble”.
As for `Cc1cc(Cl)ccc1N=Nc1c(O)ccc2ccccc12` [FR2N], the “Solubility of dye product” value in data set [1] is “FR2N: Bright Orange Pigment Insoluble”.
Regarding `Cc1cc(Cl)ccc1N=Nc1cc(S(=O)(=O)O)c2ccccc2c1N` [FRNA], at Thyroglobulin, the “Binding to thyroglobulin (in words)” value was “None of the Fast Red TR-based dyes including FRNA, FRHA, and FRAGA showed any significant binding”. The “Specific binding to thyroglobulin” value on Thyroglobulin (candidate dyes, Tables 3 and 4) was “No binding”. Moreover, in data set [1], the “Solubility of dye product” value is on record as “Soluble”.
For the molecule `CC[C@H](C)[C@H](NC(=O)[C@H](CCSC)NC(=O)[C@H](CS)NC(=O)[C@H](CCCNC(=N)N)NC(=O)[C@@H](N)Cc1ccc(O)cc1)C(=O)N[C@@H](CO)C(=O)N[C@@H](Cc1ccc(O)cc1)C(=O)NCC(=O)NCC(=O)N[C@@H](C)C(=O)N[C@@H](CC(=O)O)C(=O)N[C@@H](Cc1ccc(O)cc1)C(=O)N[C@@H](CCCCN)C(=O)N[C@@H](CCCNC(=N)N)C(=O)N[C@H](C(=O)N[C@H](C(=O)N[C@H](C(=O)O)C(C)C)[C@@H](C)O)[C@@H](C)CC` [Peptide 1], the “Solubility (to 1 mM)” value in data set [2] was 60% CH3COOH, and 14% CH3CN.
Turning to `CC[C@H](C)[C@@H]1NC(=O)[C@H](CCSC)NC(=O)[C@H](C)NC(=O)[C@H](CCCNC(=N)N)NC(=O)[C@H](Cc2ccc(O)cc2)NC(=O)[C@@H](N)CSSC[C@@H](C(=O)O)NC(=O)[C@H]([C@@H](C)O)NC(=O)[C@H]([C@@H](C)CC)NC(=O)[C@H](CCCNC(=N)N)NC(=O)[C@H](CCCCN)NC(=O)[C@H](Cc2ccc(O)cc2)NC(=O)[C@H](CC(=O)O)NC(=O)[C@H](C)NC(=O)CNC(=O)CNC(=O)[C@H](Cc2ccc(O)cc2)NC(=O)[C@H](CO)NC1=O` [Peptide 2] (H-CYRAMISYGGADYKRITC-OH; disulfide 1-18), the “Solubility (to 1 mM)” value in data set [2] worked out at 40% CH3COOH.
For `Cc1cc(-c2ccc(/N=N/c3c(S(=O)(=O)O)cc4cc(S(=O)(=O)O)cc(N)c4c3O)c(C)c2)ccc1/N=N/c1c(S(=O)(=O)O)cc2cc(S(=O)(=O)O)cc(N)c2c1O` [TB], on Thyroglobulin, the “Binding to thyroglobulin (in words)” value is “least specific binding” and the “Specific binding to thyroglobulin at equilibrium” value was determined as 3 molecules. Also, the “Binding to lysozyme (in words)” value at Lysozyme is given as “unable to bind”. Also, on Lysozyme (listed as Trypan Blue), the “Binding to lysozyme (in words)” value was “not to lysozyme”.
Consider “sodium 4-(4-(benzyl-et-amino)-ph-azo)-2,5-di-cl-benzenesulphonate [AO50]”, for which the “Specific binding to thyroglobulin at equilibrium” value at Thyroglobulin came to 15 molecules. Also, the “Binding to lysozyme (in words)” value at Lysozyme was “able to bind”. Besides, the “Specific binding to lysozyme at equilibrium” value on Lysozyme (Vmax of Michaelis-Menten fit) was found to be 1 molecule. Further, the “Effect of dye on native secondary structure of BSA (CD)” value on bovine serum albumin (10 min incubation with dye) is listed as “does not change”. Also, the “Denaturation of BSA by urea in the presence of dye (CD)” value on bovine serum albumin (urea 2M, 4M, 6M (FBBNA), 4M urea (AO50, combination)) is “attenuated; also recorded: partially stabilize”.
